Results reported in PMC5706900, “Distinct mobilization of leukocytes and hematopoietic stem cells by CXCR4 peptide antagonist LY2510924 and monoclonal antibody LY2624587” (Oncotarget, 2017).
Positions of bridges follow the written chain, without caps; N, C: chain ends. Non-standard residues stand in square brackets, D forms with d. Residues, ends and D or L forms follow the SMILES beside them. 2Nal = N[C@@H](Cc1ccc2ccccc2c1)C(=O)O; Lys(iPr) = CC(C)NCCCC[C@H](N)C(=O)O

Tests used:
[1] = biological target: T1, human CXCR4 (Homo sapiens, UniProt P61073); test: SDF-1/CXCR4 binding assay, [125I]-SDF-1α, human leukemia CCRF-CEM cells
T1 construct: human leukemia CCRF-CEM cells that express endogenous CXCR4; endogenous in cells; host or cells: CCRF-CEM human leukemia cells
Method: (§1) Preclinical characterization of both agents was previously described. Interaction of SDF-1/CXCR4 was assayed in human leukemia CCRF-CEM cells expressing high levels of human CXCR4, MDA-MB-435 cells stably transfected with monkey CXCR4, and mouse 2PK-3 lymphoma cells expressing high levels of mouse CXCR4.
(§2) Figure 1 LY2510924 peptide and LY2624587 antibody inhibition of SDF-1/CXCR4 binding in human, monkey, and mouse cells LY2510924 (peptide antagonist) inhibits binding in (A) human, (B) monkey, and (C) mouse cells. LY2624587 (CXCR4 mAb) inhibits binding in (D) human, (E) monkey, and (F) mouse cells. Human cells = leukemia CCRF-CEM cells with high-level expression of human CXCR4, monkey cells = MDA-MB-435 cells stably transfected with monkey CXCR4, and mouse cells = 2PK-3 lymphoma cells with high-level expression of mouse CXCR4. Ki = inhibitor constant.
(§3) The SDF-1/CXCR4 binding assay used human leukemia CCRF-CEM cells that express endogenous CXCR4 and [125I]-labeled recombinant human SDF-1α (PeproTech EC Ltd., London, UK) as previously described. The same assay was conducted for breast cancer MDA-MB-435 cells transfected with monkey CXCR4 and mouse lymphoma 2PK-3 cells that express endogenous mouse CXCR4. Plates were counted in a 1450 Microbeta Liquid Scintillation and Luminescence Counter (Wallac) in SPA mode.

[2] = 1- to 30-mg/day, patients with advanced cancer; ref [9]; cited from earlier work
Text: We developed LY2624587, a fully humanized CXCR4 mAb that is among the first-in-class anti-CXCR4 mAbs developed, for the treatment of patients with cancer. […] A role for LY2624587 antibody in mobilizing HSCs and WBCs has not been previously reported. We also developed LY25 ...

[3] = biological target: T2, mouse CXCR4 (Mus musculus, UniProt P70658); test: SDF-1/CXCR4 binding assay, mouse lymphoma 2PK-3 cells
T2 construct: mouse lymphoma 2PK-3 cells that express endogenous mouse CXCR4; endogenous in cells; host or cells: 2PK-3 mouse lymphoma cells
Method: as §1, §2, §3

[4] = biological target: T3, monkey CXCR4 (Macaca fascicularis, UniProt Q28474); test: SDF-1/CXCR4 binding assay, MDA-MB-435 cells transfected with monkey CXCR4; settings: MDA-MB-435 cells stably transfected with monkey CXCR4; SPA mode; read-out: IC50, inhibition of SDF-1 binding
T3 construct: expressed in transfected cells; host or cells: MDA-MB-435 cells
Method: as §1, §2, §3

[5] = tested on: leukocytes and HSCs; settings: ref [12], [20], [24]; cited from earlier work
Text: In addition to tumor microenvironments, SDF-1 is constitutively expressed at high levels in bone marrow and is an efficient chemotactic factor for immune cells including T-cells, B-cells, and monocytes. […] There are two major mechanisms involved in this function: down-regulation of cell surface CXCR4 by internalization or proteolysis, and antagonism via direct blockade of SDF-1/CXCR4 interaction.

[6] = ref [43]; cited from earlier work
[7] = tested on: pancreatic cancer; settings: mice with pancreatic cancer; ref [7]; cited from earlier work
Text: (§4) Due to the critical role of SDF-1/CXCR4 interaction in immune cell retention and mobilization, CXCR4 inhibition may lead to T-cell infiltration and redistribution in tumor microenvironments.

[8] = tested on: hepatic carcinoma models; settings: ref [30]; cited from earlier work
Text: as §4

[9] = tested on: ovarian cancer models; settings: ref [32]; cited from earlier work
Text: as §4

[10] = tested on: WBC count; settings: ref [43], cited from earlier work
[11] = tested on: patients with multiple myeloma, peripheral leukocytes; settings: ref [41]; cited from earlier work
Text: (§5) These distinct in vitro properties may be related to the differential mobilization of WBCs and HSCs in vivo, but the mechanism is not yet understood and these differences cannot fully explain why LY2624587 antibody induced only minimal changes in WBCs and HSCs in monkeys and humans. […] Weak immune cell mobilization by LY2624587 antibody may be a class phenomenon of mAb agents. Ano ...

[12] = tested on: hematologic malignancies; settings: ref [11], [39]; cited from earlier work
Text: as §5

[13] = tested on: patients with chronic lymphocytic leukemia, normal lymphocytes; settings: ref [40]; cited from earlier work
Text: as §5

T2 sequence (P70658 whole entry): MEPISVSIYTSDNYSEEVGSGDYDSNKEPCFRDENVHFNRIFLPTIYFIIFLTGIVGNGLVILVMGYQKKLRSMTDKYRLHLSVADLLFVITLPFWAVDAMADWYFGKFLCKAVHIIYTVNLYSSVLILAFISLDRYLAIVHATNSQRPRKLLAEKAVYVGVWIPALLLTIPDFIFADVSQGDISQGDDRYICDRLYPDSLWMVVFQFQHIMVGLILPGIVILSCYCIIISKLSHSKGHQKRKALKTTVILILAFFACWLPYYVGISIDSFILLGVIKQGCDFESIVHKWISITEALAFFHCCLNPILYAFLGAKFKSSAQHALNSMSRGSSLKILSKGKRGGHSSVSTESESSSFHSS
T1 sequence (P61073 whole entry): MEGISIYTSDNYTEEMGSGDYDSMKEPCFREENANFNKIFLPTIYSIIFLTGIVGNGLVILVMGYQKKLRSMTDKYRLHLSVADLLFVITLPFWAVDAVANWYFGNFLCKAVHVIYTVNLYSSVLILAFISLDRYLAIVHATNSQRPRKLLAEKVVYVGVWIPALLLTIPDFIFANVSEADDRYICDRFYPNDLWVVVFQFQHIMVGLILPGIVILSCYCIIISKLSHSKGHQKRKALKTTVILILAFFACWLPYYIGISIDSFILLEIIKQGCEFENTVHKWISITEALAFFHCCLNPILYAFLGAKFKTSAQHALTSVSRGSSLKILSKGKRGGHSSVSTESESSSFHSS
T3 sequence (Q28474 whole entry): as the sequence (P61073 whole entry) above, with M24I, N35H, K38R, R146K, N176S counted along it

CC(C)NCCCC[C@H](NC(=O)[C@H]1CCC(=O)N[C@@H](Cc2ccccc2)C(=O)N[C@@H](Cc2ccc(O)cc2)C(=O)N[C@@H](CCCCNC(C)C)C(=O)N[C@H](CCCNC(=N)N)C(=O)N[C@@H](Cc2ccc3ccccc3c2)C(=O)NCC(=O)N1)C(N)=O [LY2510924] (FY[Lys(iPr)][dR][2Nal]G[dE][Lys(iPr)]-NH2; lactam N-7)
Ki [1]: 49.5 pM | IC50 ([1]; human leukemia CCRF-CEM cells, [125I]-labeled human SDF-1α, SPA mode, read-out: IC50, inhibition of SDF-1 binding): 79.7 pM | pharmacokinetic and safety profiles [2]: favorable pharmacokinetic and safety profiles | IC50 difference, mouse versus human cells ([3]; mouse 2PK-3 vs human CCRF-CEM): 35 fold | IC50 difference, mouse versus monkey cells ([3]; mouse 2PK-3 vs monkey CXCR4 MDA-MB-435): 29 fold | IC50 ([3]; mouse lymphoma 2PK-3 cells, SPA mode, read-out: IC50, inhibition of SDF-1 binding): 2830 pM | IC50 [4]: 97 pM

c1cc(CN2CCCNCCNCCCNCC2)ccc1CN1CCCNCCNCCCNCC1 [AMD3100]
mobilization of WBCs including neutrophils and HSCs [5]: mobilize both white blood cells (WBCs) including neutrophils and HSCs | safety on chronic dosing schedule [6]: poses significant safety concerns due to compound-associated toxicity | T-cell accumulation near tumors [7]: rapid T-cell accumulation near tumors | combination with anti–PD-L1 mAb, tumor cell elimination [7]: synergistic with an anti–PD-L1 mAb to eliminate tumor cells | combination with anti–PD-1 [8]: augmented anti–PD-1 combination therapy efficacy | effect on intra-tumor regulatory T-cells [9]: selective reduction of intra-tumor regulatory T-cells | effect on tumor apoptosis [9]: increased tumor apoptosis | duration of single dose effect [10]: appeared to last only a few hours | WBC count at 24 hours ([10]; single dose, 24 hours): reduced to near baseline level at 24 hours

BMS-936564/MDX-1338: CXCR4-specific mAb in clinical development
duration of leukocyte increase [11]: transient | increase in peripheral leukocytes (median) [11]: 2 fold | antitumor and pro-apoptotic functionality [12]: antitumor and pro-apoptotic functionality | increase in absolute number of normal lymphocytes [13]: no evidence of increase
